From the NIST ThermoML archive (doi:10.1016/j.jct.2012.10.018)
Numbers after ± are expanded uncertainties.

Assay: mn = molality of the nth substance listed, in mol/kg
Details: 101 kPa, Liquid; for speed of sound: Sing-around technique in a fixed-path interferometer; for mass density: Vibrating tube method

NCC(=O)NCC(=O)NCC(=O)O [glycylglycylglycine] + O
Details | mass density, 293.15 K [kg/m3] | mass density, 298.15 K [kg/m3] | mass density, 303.15 K [kg/m3] | mass density, 308.15 K [kg/m3] | speed of sound, 293.15 K [m/s] | speed of sound, 298.15 K [m/s] | speed of sound, 303.15 K [m/s] | speed of sound, 308.15 K [m/s]
m1 = 0.025 | 1000.18 ± 0.13 | 999.002 ± 0.13 | 997.591 ± 0.13 | 995.964 ± 0.13 | 1485.2 ± 1.2 | 1499.3 ± 1.2 | 1511.6 ± 1.2 | 1522.2 ± 1.2
m1 = 0.05 | 1002.1 ± 0.13 | 1000.91 ± 0.13 | 999.479 ± 0.13 | 997.839 ± 0.13 | 1487.9 ± 1.2 | 1501.9 ± 1.2 | 1514.1 ± 1.2 | 1524.6 ± 1.2
m1 = 0.075 | 1004 ± 0.13 | 1002.79 ± 0.13 | 1001.35 ± 0.13 | 999.696 ± 0.13 | 1490.5 ± 1.2 | 1504.4 ± 1.2 | 1516.5 ± 1.2 | 1527 ± 1.2
m1 = 0.0999 | 1005.88 ± 0.13 | 1004.66 ± 0.13 | 1003.2 ± 0.13 | 1001.54 ± 0.13 | 1493.1 ± 1.2 | 1507 ± 1.2 | 1518.9 ± 1.2 | 1529.3 ± 1.2
m1 = 0.1248 | 1007.76 ± 0.13 | 1006.52 ± 0.13 | 1005.05 ± 0.13 | 1003.37 ± 0.13 | 1495.6 ± 1.2 | 1509.5 ± 1.2 | 1521.3 ± 1.2 | 1531.6 ± 1.2
m1 = 0.15 | 1009.64 ± 0.13 | 1008.38 ± 0.13 | 1006.9 ± 0.13 | 1005.21 ± 0.13 | 1498.1 ± 1.2 | 1511.8 ± 1.2 | 1523.7 ± 1.2 | 1533.9 ± 1.2
m1 = 0.175 | 1011.5 ± 0.13 | 1010.22 ± 0.13 | 1008.72 ± 0.13 | 1007.02 ± 0.13 | 1500.6 ± 1.2 | 1514.2 ± 1.2 | 1526 ± 1.2 | 1536.1 ± 1.2
m1 = 0.1926 | 1012.79 ± 0.13 | 1011.5 ± 0.13 | 1010 ± 0.13 | 1008.29 ± 0.13 | 1502.3 ± 1.2 | 1515.9 ± 1.2 | 1527.7 ± 1.2 | 1537.7 ± 1.2
m1 = 0.2706 | 1018.47 ± 0.13 | 1017.13 ± 0.13 | 1015.58 ± 0.13 | 1013.84 ± 0.13 | 1509.7 ± 1.2 | 1522.9 ± 1.2 | 1534.4 ± 1.2 | 1544.3 ± 1.2

NCC(=O)NCC(=O)O [glycylglycine] + O
Details | mass density, 293.15 K [kg/m3] | mass density, 298.15 K [kg/m3] | mass density, 303.15 K [kg/m3] | speed of sound, 293.15 K [m/s] | speed of sound, 298.15 K [m/s] | speed of sound, 303.15 K [m/s]
m1 = 0.0467 | 1000.84 ± 0.12 | 999.656 ± 0.12 | 998.24 ± 0.12 | 1486.4 ± 1.2 | 1500.5 ± 1.2 | 1512.8 ± 1.2
m1 = 0.103 | 1003.95 ± 0.12 | 1002.74 ± 0.12 | 1001.3 ± 0.12 | 1491.2 ± 1.2 | 1505.2 ± 1.2 | 1517.2 ± 1.2
m1 = 0.1479 | 1006.4 ± 0.12 | 1005.17 ± 0.12 | 1003.71 ± 0.12 | 1495 ± 1.2 | 1508.8 ± 1.2 | 1520.7 ± 1.2
m1 = 0.1998 | 1009.2 ± 0.12 | 1007.93 ± 0.12 | 1006.45 ± 0.12 | 1499.3 ± 1.2 | 1513 ± 1.2 | 1524.8 ± 1.2
m1 = 0.251 | 1011.92 ± 0.12 | 1010.63 ± 0.12 | 1009.13 ± 0.12 | 1503.5 ± 1.2 | 1517 ± 1.2 | 1528.7 ± 1.2
m1 = 0.2973 | 1014.35 ± 0.12 | 1013.04 ± 0.12 | 1011.52 ± 0.12 | 1507.3 ± 1.2 | 1520.6 ± 1.2 | 1532.2 ± 1.2
m1 = 0.347 | 1016.93 ± 0.12 | 1015.59 ± 0.12 | 1014.07 ± 0.12 | 1511.3 ± 1.2 | 1524.4 ± 1.2 | 1536 ± 1.2
m1 = 0.402 | 1019.73 ± 0.12 | 1018.38 ± 0.12 | 1016.83 ± 0.12 | 1515.7 ± 1.2 | 1528.7 ± 1.2 | 1540.2 ± 1.2
m1 = 0.4499 | 1022.14 ± 0.12 | 1020.78 ± 0.12 | 1019.21 ± 0.12 | 1519.3 ± 1.2 | 1532.3 ± 1.2 | 1543.6 ± 1.2

O [water] + NCC(=O)NCC(=O)NCC(=O)O
Details | mass density [kg/m3]
308.15 K, m2 = 0 | 994.08 ± 0.13
